From US9834550B2, “Pyridopyrimidinone compounds for modulating the catalytic activity of histone lysine demethylases (KDMs)” (Dong-A Socio Holdings Co., Ltd., priority 2014, dated 2017)

Target: T1, Recombinant human JARID1B/KDM5B (Homo sapiens, UniProt Q9UGL1)
T1 construct: purchased Active Motif 31432; host or cells: Sf9 insect cells
Experiment: LANCE Ultra TR-FRET demethylase assay with FLAG-tagged JARID1B
Type: biochemical
Conditions: 100 nM compound; 500 nM biotinylated H3K4me3 peptide substrate
Excerpt: FLAG-tagged JARID1B (also known as KDM5B) protein was screened against more than 170 compounds. For this compound screening, LANCE Ultra time-resolved fluorescence resonance energy transfer (TR-FRET) assay was employed using an europoium (Eu)-labeled antibody that can specifically recognize mono- or dimethylated peptides (H3K4me2/1) and ULight-streptavidin (ULight-SA), a small molecule fluorescent dye. When irradiated at 340 nm, the energy from the Eu donor is transferred to the ULight acceptor dye which, in turn, emits light primarily at 665 nm. The ratio between the intensity of primary emission at 665 nm and that of secondary emission at 590 nm was used to quantify the level of lysine methylation. As JARID1B removes more methyl moieties from tri-methylated substrate peptides (H3K4me3), the ratio increases until the enzyme reaction is terminated. In case, therefore, the compounds disrupt the enzymatic activity completely, the ratio becomes equal to a background value.
Recombinant human JARID1B/KDM5B (accession number NP_006609) of molecular weight 179.9 KDa was expressed in Sf9 insect cells and contains an N-terminal FLAG tag. The enzyme was obtained from Active Motif (Catalog No. 31432). The tri-methylated histone substrate peptide of purity greater than 95% was a synthetic peptide in which the first 21 amino acids correspond to the human histone H3 sequence with three extra amino acids and a biotin motif (GGK-biotin) linked to the C-terminus [sequence: ART-K (Me3)-QTARKSTGGKAPRKQLA-GGK-biotin-OH], (AnaSpec, Fremont, Calif. Catalog. No. ANA-1413). The reference inhibitory compound tranylcypromine (or trans-2-phenylcyclopropylamine hydrochloride, also known as, 2-PCPA) was purchased from Sigma (St. Louis, Mo. Cat. no. P8511). ULight-labeled streptavidin (ULight-SA, Catalog no. TRF0102), Eu-W1024-labeled anti-methyl-Histone H3 Lysine 4 (H3K4me1-2) Antibody (Catalog no. TRF0402), and LANCE detection buffer 10× (Catalog no. CR97-100) were obtained from PerkinElmer (Montreal, Quebec, Canada). The TR-FRET experiments were carried out in white, low-volume 384-wellplates purchased from PerkinElmer (ProxiPlate-384 Plus, Catalog no. 6008280).
The TR-FRET signal was measured in the presence both of the bio-H3K4me3 peptide and FLAG-JARID1B by detecting any H3K4me2/1 peptide produced in the assay system. Assays using only the bio-H3K4me2 peptide were served as a positive control. Robust enzymatic progressions were observed by using JARID1B at concentrations ranging from 10 to 30 nM. In a typical TR-FRET experiment, JARID1B was pre-incubated with or without 20 uM, 1 uM, or 0.1 uM of test-compounds (containing 1% DMSO final) for […]. The enzymatic reactions were initiated by the addition of 500 nM biotinylated H3K4me3 peptide substrate plus 500 uM of 2-OG, 25 uM Fe(II) and 2 mM ascorbate. The reaction buffer also contained 50 mM Hepes (pH7.5), 0.01% (v/v) Tween 20, and 50 mM NaCl. The reaction mixture was incubated for […] at room temperature before reading on an EnVision plate reader (PerkinElmer, Waltham, Mass.).

T1 sequence (Q9UGL1 whole entry): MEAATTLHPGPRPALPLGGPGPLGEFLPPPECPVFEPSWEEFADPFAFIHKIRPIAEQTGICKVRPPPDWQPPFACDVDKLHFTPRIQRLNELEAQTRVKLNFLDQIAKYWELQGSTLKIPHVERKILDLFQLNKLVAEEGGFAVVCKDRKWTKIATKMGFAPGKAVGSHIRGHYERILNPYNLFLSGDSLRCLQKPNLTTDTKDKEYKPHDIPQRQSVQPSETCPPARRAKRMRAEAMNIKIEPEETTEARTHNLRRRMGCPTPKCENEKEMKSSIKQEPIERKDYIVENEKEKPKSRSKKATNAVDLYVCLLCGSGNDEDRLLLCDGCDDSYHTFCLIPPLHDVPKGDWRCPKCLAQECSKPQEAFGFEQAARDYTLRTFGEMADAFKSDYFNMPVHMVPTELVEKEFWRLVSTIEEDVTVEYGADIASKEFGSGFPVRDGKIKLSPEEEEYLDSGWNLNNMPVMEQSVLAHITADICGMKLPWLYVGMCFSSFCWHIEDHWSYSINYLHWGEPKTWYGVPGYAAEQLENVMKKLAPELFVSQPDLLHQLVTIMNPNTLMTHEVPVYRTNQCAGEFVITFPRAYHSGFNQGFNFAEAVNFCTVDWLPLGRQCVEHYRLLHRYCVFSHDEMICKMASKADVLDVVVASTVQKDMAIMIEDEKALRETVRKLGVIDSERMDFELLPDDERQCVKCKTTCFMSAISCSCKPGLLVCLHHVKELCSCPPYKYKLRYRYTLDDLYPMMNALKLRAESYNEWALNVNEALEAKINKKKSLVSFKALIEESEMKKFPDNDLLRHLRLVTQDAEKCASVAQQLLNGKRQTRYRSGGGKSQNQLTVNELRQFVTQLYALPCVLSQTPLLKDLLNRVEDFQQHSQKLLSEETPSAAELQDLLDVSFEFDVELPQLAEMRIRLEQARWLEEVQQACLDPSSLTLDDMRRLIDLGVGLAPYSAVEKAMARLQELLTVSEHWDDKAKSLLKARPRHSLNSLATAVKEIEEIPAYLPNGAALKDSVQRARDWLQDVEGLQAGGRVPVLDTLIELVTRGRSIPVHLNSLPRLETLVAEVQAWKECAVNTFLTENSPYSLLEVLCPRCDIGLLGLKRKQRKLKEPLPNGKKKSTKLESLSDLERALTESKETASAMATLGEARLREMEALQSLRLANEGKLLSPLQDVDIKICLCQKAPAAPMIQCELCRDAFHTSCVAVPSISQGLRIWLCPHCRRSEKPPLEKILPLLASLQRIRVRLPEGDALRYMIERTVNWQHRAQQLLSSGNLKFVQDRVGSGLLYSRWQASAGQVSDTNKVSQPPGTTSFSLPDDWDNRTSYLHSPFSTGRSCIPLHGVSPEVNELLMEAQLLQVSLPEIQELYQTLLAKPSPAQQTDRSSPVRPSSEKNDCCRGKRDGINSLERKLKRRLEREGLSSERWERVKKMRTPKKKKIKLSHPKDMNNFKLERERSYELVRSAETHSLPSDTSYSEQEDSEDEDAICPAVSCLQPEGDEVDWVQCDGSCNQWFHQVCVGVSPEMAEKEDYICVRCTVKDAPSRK

Compound	inhibition at 0.1 µM
O=c1[nH]c(COc2ccc(Cl)cc2Cl)nc2c(CNCC3CCNCC3)nccc12 [Example 114, 2-((2,4-dichlorophenoxy)methyl)-8-(((piperidin-4-ylmethyl)amino)methyl)pyrido[3,4-d]pyrimidin-4(3H)-one]	20 to 50%
O=c1[nH]c(COc2cc(Cl)ccc2Cl)nc2c(CNCC3CCNCC3)nccc12 [Example 115, 2-((2,5-dichlorophenoxy)methyl)-8-(((piperidin-4-ylmethyl)amino)methyl)pyrido[3,4-d]pyrimidin-4(3H)-one]	20 to 50%
O=c1[nH]c(COc2ccccc2F)nc2c(CNCC3CCNCC3)nccc12 [Example 116, 2-((2-fluorophenoxy)methyl)-8-(((piperidin-4-ylmethyl)amino)methyl)pyrido[3,4-d]pyrimidin-4(3H)-one]	20 to 50%
O=c1[nH]c(COc2ccccc2Br)nc2c(CNCC3CCNCC3)nccc12 [Example 117, 2-((2-bromophenoxy)methyl)-8-(((piperidin-4-ylmethyl)amino)methyl)pyrido[3,4-d]pyrimidin-4(3H)-one]	20 to 50%
Cc1ccccc1OCc1nc2c(CNCC3CCNCC3)nccc2c(=O)[nH]1 [Example 118, 8-(((piperidin-4-ylmethyl)amino)methyl)-2-((o-tolyloxy)methyl)pyrido[3,4-d]pyrimidin-4(3H)-one]	20 to 50%
Cc1cccc(OCc2nc3c(CNCC4CCNCC4)nccc3c(=O)[nH]2)c1 [Example 119, 8-(((piperidin-4-ylmethyl)amino)methyl)-2-((m-tolyloxy)methyl)pyrido[3,4-d]pyrimidin-4(3H)-one]	20 to 50%
Cc1ccc(OCc2nc3c(CNCC4CCNCC4)nccc3c(=O)[nH]2)cc1 [Example 120, 8-(((piperidin-4-ylmethyl)amino)methyl)-2-((p-tolyloxy)methyl)pyrido[3,4-d]pyrimidin-4(3H)-one]	20 to 50%
O=c1[nH]c(COc2ccc(Cc3ccccc3)cc2)nc2c(CNCC3CCNCC3)nccc12 [Example 121, 2-((4-benzylphenoxy)methyl)-8-(((piperidin-4-ylmethyl)amino)methyl)pyrido[3,4-d]pyrimidin-4(3H)-one]	> 50%
O=c1[nH]c(COc2ccccc2Cl)nc2c(CNCC3CCNCC3)nccc12 [Example 122, 2-((2-chlorophenoxy)methyl)-8-(((piperidin-4-ylmethyl)amino)methyl)pyrido[3,4-d]pyrimidin-4(3H)-one]	20 to 50%
O=c1[nH]c(COc2ccccc2)nc2c(CNCC3CCNCC3)nccc12 [Example 123, 2-(phenoxymethyl)-8-(((piperidin-4-ylmethyl)amino)methyl)pyrido[3,4-d]pyrimidin-4(3H)-one]	20 to 50%
O=c1[nH]c(COc2ccc(F)cc2F)nc2c(CNCC3CCNCC3)nccc12 [Example 124, 2-((2,4-difluorophenoxy)methyl)-8-(((piperidin-4-ylmethyl)amino)methyl)pyrido[3,4-d]pyrimidin-4(3H)-one]	20 to 50%
O=c1[nH]c(COc2cc(F)cc(F)c2)nc2c(CNCC3CCNCC3)nccc12 [Example 125, 2-((3,5-difluorophenoxy)methyl)-8-(((piperidin-4-ylmethyl)amino)methyl)pyrido[3,4-d]pyrimidin-4(3H)-one]	20 to 50%
O=c1[nH]c(COc2ccc(F)c(Cl)c2)nc2c(CNCC3CCNCC3)nccc12 [Example 126, 2-((3-chloro-4-fluorophenoxy)methyl)-8-(((piperidin-4-ylmethyl)amino)methyl)pyrido[3,4-d]pyrimidin-4(3H)-one]	> 50%
O=c1[nH]c(COc2ccc(Cl)c(F)c2)nc2c(CNCC3CCNCC3)nccc12 [Example 127, 2-((4-chloro-3-fluorophenoxy)methyl)-8-(((piperidin-4-ylmethyl)amino)methyl)pyrido[3,4-d]pyrimidin-4(3H)-one]	20 to 50%
N#Cc1ccccc1OCc1nc2c(CNCC3CCNCC3)nccc2c(=O)[nH]1 [Example 128, 2-((4-oxo-8-(((piperidin-4-ylmethyl)amino)methyl)-3,4-dihydropyrido[3,4-d]pyrimidin-2-yl)methoxy)benzonitrile]	20 to 50%
N#Cc1ccc(OCc2nc3c(CNCC4CCNCC4)nccc3c(=O)[nH]2)cc1 [Example 129, 4-((4-oxo-8-(((piperidin-4-ylmethyl)amino)methyl)-3,4-dihydropyrido[3,4-d]pyrimidin-2-yl)methoxy)benzonitrile]	20 to 50%
Cc1ccc(Cl)c(OCc2nc3c(CNCC4CCNCC4)nccc3c(=O)[nH]2)c1 [Example 130, 2-((2-chloro-5-methylphenoxy)methyl)-8-(((piperidin-4-ylmethyl)amino)methyl)pyrido[3,4-d]pyrimidin-4(3H)-one]	> 50%

The remaining lines, values ahead:

inhibition at 0.1 µM	Compound
20 to 50%	O=c1[nH]c(COc2cnc(Br)cn2)nc2c(CNCC3CCNCC3)nccc12 [Example 131, 2-(((5-bromopyrazin-2-yl)oxy)methyl)-8-(((piperidin-4-ylmethyl)amino)methyl)pyrido[3,4-d]pyrimidin-4(3H)-one]
> 50%	O=c1[nH]c(COc2cccc(Cl)c2)nc2c(CNCC3CCNCC3)nccc12 [Example 132, 2-((3-chlorophenoxy)methyl)-8-(((piperidin-4-ylmethyl)amino)methyl)pyrido[3,4-d]pyrimidin-4(3H)-one]
< 20%	O=c1[nH]c(COc2ccccn2)nc2c(CNCC3CCNCC3)nccc12 [Example 133, 8-(((piperidin-4-ylmethyl)amino)methyl)-2-((pyridin-2-yloxy)methyl)pyrido[3,4-d]pyrimidin-4(3H)-one]
20 to 50%	Cc1cc(OCc2nc3c(CNCC4CCNCC4)nccc3c(=O)[nH]2)ccc1Cl [Example 134, 2-((4-chloro-3-methylphenoxy)methyl)-8-(((piperidin-4-ylmethyl)amino)methyl)pyrido[3,4-d]pyrimidin-4(3H)-one]
20 to 50%	CCc1ccc(OCc2nc3c(CNCC4CCNCC4)nccc3c(=O)[nH]2)cc1 [Example 135, 2-((4-ethylphenoxy)methyl)-8-(((piperidin-4-ylmethyl)amino)methyl)pyrido[3,4-d]pyrimidin-4(3H)-one]
20 to 50%	Cc1ccc(OCc2nc3c(CNCC4CCNCC4)nccc3c(=O)[nH]2)cc1C [Example 136, 2-((3,4-dimethylphenoxy)methyl)-8-(((piperidin-4-ylmethyl)amino)methyl)pyrido[3,4-d]pyrimidin-4(3H)-one]
20 to 50%	Cc1cc(Cl)ccc1OCc1nc2c(CNCC3CCNCC3)nccc2c(=O)[nH]1 [Example 137, 2-((4-chloro-2-methylphenoxy)methyl)-8-(((piperidin-4-ylmethyl)amino)methyl)pyrido[3,4-d]pyrimidin-4(3H)-one]
20 to 50%	N#Cc1cccc(OCc2nc3c(CNCC4CCNCC4)nccc3c(=O)[nH]2)c1 [Example 138, 3-((4-oxo-8-(((piperidin-4-ylmethyl)amino)methyl)-3,4-dihydropyrido[3,4-d]pyrimidin-2-yl)methoxy)benzonitrile]
20 to 50%	O=c1[nH]c(COc2ccc3c(c2)CCC3)nc2c(CNCC3CCNCC3)nccc12 [Example 139, 2-(((2,3-dihydro-1H-inden-5-yl)oxy)methyl)-8-(((piperidin-4-ylmethyl)amino)methyl)pyrido[3,4-d]pyrimidin-4(3H)-one]
20 to 50%	O=c1[nH]c(COc2ccc(C3CCCC3)cc2)nc2c(CNCC3CCNCC3)nccc12 [Example 140, 2-((4-cyclopentylphenoxy)methyl)-8-(((piperidin-4-ylmethyl)amino)methyl)pyrido[3,4-d]pyrimidin-4(3H)-one]
20 to 50%	CC(c1ccccc1)c1ccc(OCc2nc3c(CNCC4CCNCC4)nccc3c(=O)[nH]2)cc1 (stereo not shown) [Example 141, 2-((4-(1-phenylethyl)phenoxy)methyl)-8-(((piperidin-4-ylmethyl)amino)methyl)pyrido[3,4-d]pyrimidin-4(3H)-one]
